Assay results published in the NIST ThermoML archive (doi:10.1021/je400468z).
Values joined by “and” are separate entries in the source; they are usually repeats but may differ in a detail not shown here. Equal values may be shown once. ± gives the expanded uncertainty stated by the source.

Experiment: relative permittivity at various frequencies (dimensionless)
Conditions: Liquid, Frequency=0.001 MHz, Coaxial cylinder capacitor

Compound `CCCCCCC` [heptane] has a relative permittivity (303.56 K, 320.13 kPa) of 1.90973 ± 0.00074, a relative permittivity (303.56 K, 1121.5 kPa) of 1.91097 ± 0.00073 and a relative permittivity (303.56 K, 5049.5 kPa) of 1.9172 ± 0.00073. It also gave a relative permittivity (303.56 K, 10111 kPa) of 1.92498 ± 0.00073, a relative permittivity (303.56 K, 20218 kPa) of 1.93899 ± 0.00074 and a relative permittivity (303.56 K, 20219 kPa) of 1.93899 ± 0.00074. It also gave a relative permittivity (303.56 K, 30315 kPa) of 1.95162 ± 0.00073, a relative permittivity (303.56 K, 30317 kPa) of 1.95171 ± 0.00073 and a relative permittivity (303.56 K, 40408 kPa) of 1.96324 ± 0.00073. The relative permittivity (303.56 K, 50515 kPa) was 1.97403 ± 0.00075, the relative permittivity (303.56 K, 60608 kPa) was 1.98391 ± 0.00075 and the relative permittivity (333.15 K, 327.25 kPa) was 1.86971 ± 0.00075. The relative permittivity (333.15 K, 1134.1 kPa) was 1.87125 ± 0.00074, the relative permittivity (333.15 K, 5058.1 kPa) was 1.87892 ± 0.00074 and the relative permittivity (333.15 K, 5509 kPa) was 1.87899 ± 0.00074. It also gave a relative permittivity (333.15 K, 10118 kPa) of 1.88834 ± 0.00073, a relative permittivity (333.15 K, 10122 kPa) of 1.88832 ± 0.00073 and a relative permittivity (333.15 K, 20230 kPa) of 1.90484 ± 0.00074. It also gave a relative permittivity (333.15 K, 20232 kPa) of 1.90482 ± 0.00074, a relative permittivity (333.15 K, 30327 kPa) of 1.91942 ± 0.00074 and a relative permittivity (333.15 K, 30328 kPa) of 1.91944 ± 0.00074. For the same compound, the relative permittivity (333.15 K, 40419 kPa) was 1.93256 ± 0.00073, the relative permittivity (333.15 K, 50511 kPa) was 1.9444 ± 0.00073 and the relative permittivity (333.15 K, 60625 kPa) was 1.95543 ± 0.00075. The relative permittivity (363.01 K, 328.75 kPa) was 1.82615 ± 0.00073, the relative permittivity (363.01 K, 1138 kPa) was 1.82815 ± 0.00073 and the relative permittivity (363.01 K, 5057.6 kPa) was 1.83786 ± 0.00072. The relative permittivity (363.01 K, 5062.5 kPa) was 1.83787 ± 0.00072, the relative permittivity (363.01 K, 10125 kPa) was 1.84924 ± 0.00074 and the relative permittivity (363.01 K, 20232 kPa) was 1.86884 ± 0.00073 and 1.86885 ± 0.00073. The relative permittivity (363.01 K, 30330 kPa) was 1.8855 ± 0.00072, the relative permittivity (363.01 K, 30332 kPa) was 1.88575 ± 0.00072 and the relative permittivity (363.01 K, 40413 kPa) was 1.90054 ± 0.00074. For the same compound, the relative permittivity (363.01 K, 50513 kPa) was 1.9141 ± 0.00073, the relative permittivity (363.01 K, 60612 kPa) was 1.9264 ± 0.00073 and the relative permittivity (363.01 K, 60613 kPa) was 1.92636 ± 0.00073.
